In brackets after ≈: the same amount, converted by molar mass. Activity calls are given as the source filed them. The calls are words filed in the database; no cut-off is given here.
Tests used:
Candida albicans [1] = assay: Inhibition of Candida albicans ATCC 90028 cell adhesion to human TR146 cells at reduction in cell adherence at 46.05 uM relative to control; type: functional; conditions: ATCC 90028, TR146
Candida albicans [2] = assay: Selectivity index, ratio of CC50 for induction of necrosis in Candida albicans ATCC 90028 to MIC for Candida albicans ATCC 90028; type: functional
Candida albicans [3] = assay: Antifungal activity against Candida albicans ATCC 90028 assessed as planktonic growth inhibition at 5.76 uM after 48 hrs by M27-A3 protocol based method relative to control; type: functional; conditions: ATCC 90028, 48 h, read-out: GI
Candida albicans [4] = assay: Induction of reactive oxygen species generation in Candida albicans ATCC 90028 assessed as ROS level at 46.05 uM after 18 hrs by DCFDA probe based flow cytometry (reference value: 0.3%); type: functional
[5] = Toxicity in Galleria mellonella larvae assessed as cocoon formation at 46.05 uM measured after 18 hrs (reference value: 60 +/- 20%)
Candida albicans [6] = assay: Antifungal activity against Candida albicans ATCC 90028 assessed as reduction in cell growth after 48 to 72 hrs in presence of ergosterol by M27-A3 protocol based method; type: functional
Candida albicans [7] = assay: Antifungal activity against Candida albicans ATCC 90028 assessed as planktonic growth inhibition at 0.72 uM after 48 hrs by M27-A3 protocol based method relative to control; type: functional; conditions: ATCC 90028, 48 h, read-out: GI
[8] = Toxicity in Galleria mellonella larvae assessed as cocoon formation at 46.05 uM measured after 48 hrs (reference value: 85 +/- 5%)
Candida albicans [9] = assay: Antifungal activity against Candida albicans ATCC 90028 assessed as planktonic growth inhibition at 0.18 uM after 48 hrs by M27-A3 protocol based method relative to control; type: functional; conditions: ATCC 90028, 48 h, read-out: GI
Candida albicans [10] = assay: Antibiofilm activity against Candida albicans ATCC 90028 assessed as inhibition of biofilm formation […] after 24 hrs by XTT assay relative to control; type: functional, organism-based; conditions: ATCC 90028, 24 h
[11] = Toxicity in Galleria mellonella larvae assessed as survival rate at 46.05 uM measured after 48 hrs (reference value: 100%)
[12] = Toxicity in Galleria mellonella larvae assessed as movement melanization at 46.05 uM measured after 48 hrs (reference value: 0%)
Candida albicans [13] = assay: Antifungal activity against Candida albicans ATCC 90028 assessed as planktonic growth inhibition at 0.09 uM after 48 hrs by M27-A3 protocol based method relative to control; type: functional; conditions: ATCC 90028, 48 h, read-out: GI
Candida albicans [14] = assay: Antifungal activity against Candida albicans ATCC 90028 assessed as planktonic growth inhibition at 46.05 uM after 48 hrs by M27-A3 protocol based method relative to control; type: functional; conditions: ATCC 90028, 48 h, read-out: GI
Candida albicans [15] = assay: Induction of apoptosis in Candida albicans ATCC 90028 assessed as necrotic cells at 46.05 uM by Annexin V-FITC/propidium iodide staining based flow cytometry relative to control; type: functional
[16] = Toxicity in Galleria mellonella larvae assessed as movement melanization at 46.05 uM measured after 18 hrs (reference value: 0%)
Candida albicans [17] = assay: Antifungal activity against Candida albicans ATCC 90028 infected in Galleria mellonella larvae assessed as induction of pathogen entrapping by haemocytes at 10 uL measured at 24 hrs interval for 144 hrs by HE staining based microscopic analysis; type: functional, organism-based
[18] = Toxicity in Galleria mellonella larvae assessed as cocoon formation at 46.05 uM measured after 48 hrs (reference value: 100 +/- 0%)
Candida albicans [19] = assay: Antifungal activity against Candida albicans ATCC 90028 assessed as planktonic growth inhibition at 11.51 uM after 48 hrs by M27-A3 protocol based method relative to control; type: functional; conditions: ATCC 90028, 48 h, read-out: GI
[20] = Toxicity in Galleria mellonella larvae assessed as survival rate at 46.05 uM measured after 18 hrs (reference value: 100%)
Candida albicans [21] = assay: Fungicidal activity against Candida albicans ATCC 90028 assessed as log reduction in fungal load incubated for 48 hrs followed by replating on sabouraud dextrose agar plate and measured after 48 hrs; type: functional
Candida albicans [22] = assay: Antifungal activity against Candida albicans ATCC 90028 assessed as planktonic growth inhibition at 1.44 uM after 48 hrs by M27-A3 protocol based method relative to control; type: functional; conditions: ATCC 90028, 48 h, read-out: GI
Candida albicans [23] = assay: Cell cycle arrest in Candida albicans ATCC 90028 assessed as accumulation at G0/G1-phase by propidium iodide staining based flow cytometry; type: functional, organism-based
Candida albicans [24] = assay: Induction of Candida albicans ATCC 90028 internalization in mouse RAW264.7 cells assessed as reduction in fungus-induced cell damage by measuring live and early apoptotic cells at 46.05 uM after 2 hrs acridine orange/ethidium bromide staining based confocal scanning microscopic analysis; type: functional, organism-based
[25] = Toxicity in Galleria mellonella larvae assessed as movement melanization at 46.05 uM measured after 128 hrs (reference value: 0%)
[26] = Toxicity in Galleria mellonella larvae assessed as survival rate at 46.05 uM measured after 120 hrs (reference value: 100%)
Candida albicans [27] = assay: Antifungal activity against Candida albicans ATCC 90028 assessed as planktonic growth inhibition at 23.02 uM after 48 hrs by M27-A3 protocol based method relative to control; type: functional; conditions: ATCC 90028, 48 h, read-out: GI
Candida albicans [28] = assay: Antifungal activity against Candida albicans ATCC 90028 infected in Galleria mellonella larvae assessed as inhibition of fungus filamentation at 10 uL measured at 24 hrs interval for 144 hrs by HE staining based microscopic analysis; type: functional, organism-based
[29] = Selectivity index, ratio of CC50 for African green monkey Vero cells to IC50 for Candida albicans ATCC 90028; type: toxicity; conditions: read-out: Ratio CC50/IC50
Candida albicans [30] = assay: Antifungal activity against Candida albicans ATCC 90028 assessed as reduction in cell growth after 48 to 72 hrs by M27-A3 protocol based method; type: functional
Candida albicans [31] = assay: Induction of apoptosis in Candida albicans ATCC 90028 assessed as necrotic cells by Annexin V-FITC/propidium iodide staining based flow cytometry; type: functional, organism-based
Candida albicans [32] = assay: Antifungal activity against Candida albicans ATCC 90028 assessed as planktonic growth inhibition at 0.36 uM after 48 hrs by M27-A3 protocol based method relative to control; type: functional; conditions: ATCC 90028, 48 h, read-out: GI
Candida albicans [33] = assay: Antifungal activity against Candida albicans ATCC 90028 assessed as planktonic growth inhibition at 2.88 uM after 48 hrs by M27-A3 protocol based method relative to control; type: functional; conditions: ATCC 90028, 48 h, read-out: GI

Cc1cccc(C2CCCN2CCCn2nnc(-c3ccccc3)n2)c1 (stereo not drawn)
inhibition at 46.05 µM (Candida albicans [1]): 98.2% | Selectivity Index (Candida albicans [2]): 4 | inhibition of growth at 5.76 µM (Candida albicans [3]): 99.4% | Activity (Candida albicans [4]): 7% | Activity [5]: 87% | MIC (Candida albicans [6]): 23 µM | inhibition of growth at 0.72 µM (Candida albicans [7]): 99.4% | Activity [8]: 73% | inhibition of growth at 0.18 µM (Candida albicans [9]): 99.4% | IC50 (Candida albicans [10]): 46.1 µM | survival at 48 h, 46.05 µM [11]: 100% | Activity [12]: 0% | inhibition of growth at 0.09 µM (Candida albicans [13]): 100% | inhibition of growth at 46.05 µM (Candida albicans [14]): 99.4% | Activity (Candida albicans [15]): 97% | Activity [16]: 0% | Activity (Candida albicans [17]): Active | Activity [18]: 80% | inhibition of growth at 11.51 µM (Candida albicans [19]): 99.5% | survival at 18 h, 46.05 µM [20]: 100% | log(activity) (Candida albicans [21]): -0.1 | inhibition of growth at 1.44 µM (Candida albicans [22]): 99.4% | Activity (Candida albicans [23]): Active | Activity (Candida albicans [24]): Active | Activity [25]: 20% | survival at 120 h, 46.05 µM [26]: 80% | inhibition of growth at 23.02 µM (Candida albicans [27]): 99.4% | inhibition (Candida albicans [28]): Active | selectivity ratio [29]: 2 | MIC (Candida albicans [30]): 11.5 µM (≈ 4 µg/mL) | IC50 (Candida albicans [31]): 46.1 µM | inhibition of growth at 0.36 µM (Candida albicans [32]): 99.5% | inhibition of growth at 2.88 µM (Candida albicans [33]): 99.3%

Reference: ChEMBL document CHEMBL4411303, “Synthesis of tetrazole derivatives bearing pyrrolidine scaffold and evaluation of their antifungal activity against Candida albicans” (Eur J Med Chem, 2019)
